Test results from patent US8268881B2, “Carboxamide derivatives as muscarinic receptor antagonists” (Pfizer Limited, priority 2005, dated 2012).

These compounds were tested against T1, human muscarinic M3 receptor (Homo sapiens, UniProt P20309) (assay: hM3 β-Lac potency assay (cell based β-lactamase)). Conditions: not given.
T1 construct: expressed in transfected cells
Experimental: M3 potency was determined in CHO-K1 cells transfected with the NFAT-Betalactamase gene. CHO (Chinese Hamster Ovary) cells recombinantly expressing the human muscarinic M3 receptor were transfected with the NFAT_β-Lac_Zeo plasmid.
The cells were re-suspended at 2×10^5 cells/ml in growth medium (composition as described above). […] Inhibition curves were plotted and IC50 values generated using a 4-parameter sigmoid fit and converted to Ki values using the Cheng-Prusoff correction and the KD value for carbamyl choline in the assay.

T1 sequence (P20309 whole entry): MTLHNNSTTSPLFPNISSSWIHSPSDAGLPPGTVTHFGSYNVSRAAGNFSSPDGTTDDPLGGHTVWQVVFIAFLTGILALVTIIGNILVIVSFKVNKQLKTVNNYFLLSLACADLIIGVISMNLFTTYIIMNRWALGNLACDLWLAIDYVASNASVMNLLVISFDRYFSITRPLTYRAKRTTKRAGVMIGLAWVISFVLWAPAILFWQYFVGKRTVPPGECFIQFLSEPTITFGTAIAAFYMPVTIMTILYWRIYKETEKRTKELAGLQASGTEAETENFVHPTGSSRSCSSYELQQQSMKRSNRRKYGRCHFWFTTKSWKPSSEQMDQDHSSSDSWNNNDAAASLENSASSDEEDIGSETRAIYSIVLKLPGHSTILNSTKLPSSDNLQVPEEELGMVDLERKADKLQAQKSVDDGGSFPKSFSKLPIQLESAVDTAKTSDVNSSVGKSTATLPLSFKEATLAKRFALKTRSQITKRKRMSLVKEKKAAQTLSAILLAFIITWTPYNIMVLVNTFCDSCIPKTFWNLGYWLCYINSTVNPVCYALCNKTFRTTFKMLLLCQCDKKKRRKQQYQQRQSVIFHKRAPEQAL

SMILES | Ki [nM]
CC(C)(CCC(C(N)=O)(c1ccccc1)c1ccccc1)N1CC[C@H](Oc2ccc(Cl)cc2O)C1 [Example 36, 5-[(3S)-3-(4-Chloro-2-Hydroxy-phenoxy)-pyrrolidin-1-yl]-5-methyl-2,2-diphenyl-hexanoic acid amide] | 17.6

Same assay, conditions: CHO cells expressing human M3 receptor, NFAT β-lactamase reporter; […]; IC50 converted to Ki by Cheng-Prusoff; read-out: Cell based β-lactamase M3 Ki

SMILES | Ki [nM]
CC(C)(CCC(C#N)(c1ccccc1)c1ccccc1)N1CC[C@H](Oc2ccccc2)C1 [Example 1, 5-Methyl-5-[(3S)-3-phenoxypyrrolidin-1-yl]-2,2-diphenylhexanenitrile] | 8.34

Same assay, conditions: CHO cells expressing human M3 receptor, NFAT β-lactamase reporter; inhibition of 80 nM carbamyl choline signal, 4 h; IC50 converted to Ki by Cheng-Prusoff; read-out: Cell based β-lactamase M3 Ki

SMILES | Ki [nM]
CC(C)(CCC(C(N)=O)(c1ccccc1)c1ccccc1)N1CC[C@@H](Oc2ccccc2)C1 [Example 4, 5-Methyl-5-[(3R)-3-phenoxypyrrolidin-1-yl]-2,2-diphenylhexanamide] | 1.55
COc1cccc(O[C@H]2CCN(C(C)(C)CCC(C(N)=O)(c3ccccc3)c3ccccc3)C2)c1 [Example 6, 5-[(3S)-3-(3-methoxyphenoxy)pyrrolidin-1-yl]-5-methyl-2,2-diphenylhexanamide] | 1.02
CC(C)(CCC(C(N)=O)(c1ccccc1)c1ccccc1)N1CC[C@@H](OCc2ccccc2)C1 [Example 9, 5-[(3R)-3-(Benzyloxy)pyrrolidin-1-yl]-5-methyl-2,2-diphenylhexanamide] | 1.87
CC(C)(CCC(C(N)=O)(c1ccccc1)c1ccccc1)N1CC[C@H](OCc2ccccc2)C1 [Example 11, 5-[(3S)-3-(Benzyloxy)pyrrolidin-1-yl]-5-methyl-2,2-diphenylhexanamide] | 3.27
COc1cccc(O[C@@H]2CCN(C(C)(C)CCC(C(N)=O)(c3ccccc3)c3ccccc3)C2)c1 [Example 12, 5-[(3R)-3-(3-Methoxyphenoxy)pyrrolidin-1-yl]-5-methyl-2,2-diphenylhexanamide] | 0.3
Cc1cccc(O[C@H]2CCN(C(C)(C)CCC(C(N)=O)(c3ccccc3)c3ccccc3)C2)c1 [Example 14, 5-Methyl-5-[(3S)-3-(3-methylphenoxy)pyrrolidin-1-yl]-2,2-diphenylhexanamide] | 1.32
CC(C)(CCC(C(N)=O)(c1ccccc1)c1ccccc1)N1CC[C@@H](Oc2ccc3ncoc3c2)C1 [Example 15, 5-[(3R)-3-(1,3-Benzoxazol-6-yloxy)pyrrolidin-1-yl]5-methyl-2,2-diphenylhexanamide] | 4.25
CC(C)(CCC(C(N)=O)(c1ccccc1)c1ccccc1)N1CC[C@H](Oc2ccc(Cl)cc2)C1 [Example 16, 5-[(3S)-3-(4-Chlorophenoxy)pyrrolidin-1-yl]-5-methyl-2,2-diphenylhexanamide] | 1.85
CC(C)(CCC(C(N)=O)(c1ccccc1)c1ccccc1)N1CC[C@H](Oc2cccc(Br)c2)C1 [Example 17, 5-[(3S)-3-(3-Bromophenoxy)pyrrolidin-1-yl]-5-methyl-2,2-diphenylhexanamide] | 5.11
CC(C)(CCC(C(N)=O)(c1ccccc1)c1ccccc1)N1CC[C@H](Oc2ccc(-c3cccc(O)c3)cc2)C1 [Example 18, 5-{(3S)-3-[(3′-Hydroxybiphenyl-4-yl)oxy]pyrrolidin-1-yl}-5-methyl-2,2-diphenylhexanamide] | 6.96
CC(C)(CCC(C(N)=O)(c1ccccc1)c1ccccc1)N1CC[C@H](Oc2cccc(-c3cccc(O)c3)c2)C1 [Example 19, 5-{(3S)-3-[(3′-Hydroxybiphenyl-3-yl)oxy]pyrrolidin-1-yl}-5-methyl-2,2-diphenylhexanamide] | 5.56
CC(C)(CCC(C(N)=O)(c1ccccc1)c1ccccc1)N1CC[C@H](Oc2ccc3cc(O)ccc3c2)C1 [Example 20, 5-{(3S)-3-[(6-Hydroxy-2-naphthyl)oxy]pyrrolidin-1-yl}-5-methyl-2,2-diphenylhexanamide] | 108
CC(C)(CCC(C(N)=O)(c1ccccc1)c1ccccc1)N1CC[C@H](Oc2ccc(C(F)(F)F)cc2)C1 [Example 24, 5-[(3S)-3-(4-trifluoromethyl-phenoxy)pyrrolidin-1-yl]-5-methyl-2,2-diphenylhexanamide] | 20.7
CC(C)(CCC(C(N)=O)(c1ccccc1)c1ccccc1)N1CC[C@@H](Oc2ccc(C(F)(F)F)cc2)C1 [Example 26, 5-[(3R)-3-(4-trifluoromethyl-phenoxy)pyrrolidin-1-yl]-5-methyl-2,2-diphenylhexanamide] | 1.67
COc1ccc(O[C@@H]2CCN(C(C)(C)CCC(C(N)=O)(c3ccccc3)c3ccccc3)C2)cc1Cl [Example 28, 5-[(3R)-3-(3-chloro-4-methoxy-phenoxy)pyrrolidin-1-yl]-5-methyl-2,2-diphenylhexanamide] | 47.4
Cc1cc(O)cc(O[C@H]2CCN(C(C)(C)CCC(C(N)=O)(c3ccccc3)c3ccccc3)C2)c1 [Example 29, 5-[(3S)-3-(3-Hydroxy-5-methyl-phenoxy)-pyrrolidin-1-yl]-5-methyl-2,2-diphenyl-hexanoic acid amide] | 2.26
Cc1c(O)cccc1O[C@H]1CCN(C(C)(C)CCC(C(N)=O)(c2ccccc2)c2ccccc2)C1 [Example 30, 5-[(3S)-3-(3-Hydroxy-2-methyl-phenoxy)-pyrrolidin-1-yl]-5-methyl-2,2-diphenyl-hexanoic acid amide] | 0.333

SMILES | Ki [nM]
CC(C)(CCC(C(N)=O)(c1ccccc1)c1ccccc1)N1CC[C@H](Oc2cc(O)c(Cl)cc2Cl)C1 [Example 31, 5-[(3S)-3-(2,4-Dichloro-5-Hydroxy-phenoxy)-pyrrolidin-1-yl]-5-methyl-2,2-diphenyl-hexanoic acid amide] | 45.1
CC(C)(CCC(C(N)=O)(c1ccccc1)c1ccccc1)N1CC[C@H](Oc2cc(Cl)c(Cl)cc2O)C1 [Example 32, 5-[(3S)-3-(4,5-Dichloro-2-Hydroxy-phenoxy)-pyrrolidin-1-yl]-5-methyl-2,2-diphenyl-hexanoic acid amide] | 36.4
CC(C)(CCC(C(N)=O)(c1ccccc1)c1ccccc1)N1CC[C@H](Oc2cc(O)cc(Cl)c2)C1 [Example 34, 5-[(3S)-3-(3-Chloro-5-hydroxy-phenoxy)-pyrrolidin-1-yl]-5-methyl-2,2-diphenyl-hexanoic acid amide] | 6.57
COc1cc(Cl)ccc1O[C@H]1CCN(C(C)(C)CCC(C(N)=O)(c2ccccc2)c2ccccc2)C1 [Example 35, 5-[(3S)-3-(4-Chloro-2-Methoxy-phenoxy)-pyrrolidin-1-yl]-5-methyl-2,2-diphenyl-hexanoic acid amide] | 7.28
COc1cccc(O[C@H]2CCN(C(C)(C)CCC(C(N)=O)(c3ccccc3)c3ccccc3)C2)c1Cl [Example 37, 5-[(3S)-3-(2-Chloro-3-Methoxy-phenoxy)-pyrrolidin-1-yl]-5-methyl-2,2-diphenyl-hexanoic acid amide] | 5.01
CC(C)(CCC(C(N)=O)(c1ccccc1)c1ccccc1)N1CC[C@H](Oc2cccc(O)c2Cl)C1 [Example 38, 5-[(3S)-3-(2-Chloro-3-Hydroxy-phenoxy)-pyrrolidin-1-yl]-5-methyl-2,2-diphenyl-hexanoic acid amide] | 0.996
CC(C)(CCC(C(N)=O)(c1ccccc1)c1ccccc1)N1CC[C@H](Oc2ccc(Cl)c(O)c2)C1 [Example 39, 5-[(3S)-3-(4-Chloro-3-Hydroxy-phenoxy)-pyrrolidin-1-yl]-5-methyl-2,2-diphenylhexanoic acid amide] | 1.97
CC(C)(CCC(C(N)=O)(c1ccccc1)c1ccccc1)N1CC[C@H](Oc2cc(O)ccc2Cl)C1 [Example 40, 5-[(3S)-3-(2-Chloro-5-Hydroxy-phenoxy)-pyrrolidin-1-yl]-5-methyl-2,2-diphenyl-hexanoic acid amide] | 6.09
COc1c(Cl)cccc1O[C@@H]1CCN(C(C)(C)CCC(C(N)=O)(c2ccccc2)c2ccccc2)C1 [Example 42, 5-[(3R)-3-(3-Chloro-2-Methoxy-phenoxy)-pyrrolidin-1-yl]-5-methyl-2,2-diphenyl-hexanoic acid amide] | 22.1
CC(C)(CCC(C(N)=O)(c1ccccc1)c1ccccc1)N1CC[C@@H](Oc2cccc(Cl)c2O)C1 [Example 43, 5-[(3R)-3-(3-Chloro-2-Hydroxy-phenoxy)-pyrrolidin-1-yl]-5-methyl-2,2-diphenyl-hexanoic acid amide] | 5.35
Cc1cc(O)c(C)c(O[C@H]2CCN(C(C)(C)CCC(C(N)=O)(c3ccccc3)c3ccccc3)C2)c1 [Example 44, 5-[(3S)-3-(3-Hydroxy-2,5-dimethyl-phenoxy)-pyrrolidin-1-yl]-5-methyl-2,2-diphenyl-hexanoic acid amide] | 32.2
CC(C)(CCC(C(N)=O)(c1ccccc1)c1ccccc1)N1CC[C@H](Oc2cc(O)cc(F)c2)C1 [Example 46, 5-[(3S)-3-(3-Fluoro-5-Hydroxy-phenoxy)-pyrrolidin-1-yl]-5-methyl-2,2-diphenyl-hexanoic acid amide] | 1.74
CC(C)(CCC(C(N)=O)(c1ccccc1)c1ccccc1)N1CC[C@@H](Oc2cc(O)cc(C(F)(F)F)c2)C1 [Example 49, 5-[(3R)-3-(3-Hydroxy-5-trifluoromethyl-phenoxy)-pyrrolidin-1-yl]-5-methyl-2,2-diphenyl-hexanoic acid amide] | 48.5
COc1cc(O[C@H]2CCN(C(C)(C)CCC(C(N)=O)(c3ccccc3)c3ccccc3)C2)ccc1F [Example 50, 5-[(3S)-3-(4-Fluoro-3-Methoxy-phenoxy)-pyrrolidin-1-yl]-5-methyl-2,2-diphenyl-hexanoic acid amide] | 3.18
COc1cccc(O[C@H]2CCN(C(C)(C)CCC(C(N)=O)(c3ccccc3)c3ccccc3)C2)c1F [Example 51, 5-[(3S)-3-(2-Fluoro-3-Methoxy-phenoxy)-pyrrolidin-1-yl]-5-methyl-2,2-diphenyl-hexanoic acid amide] | 0.623
CC(C)(CCC(C(N)=O)(c1ccccc1)c1ccccc1)N1CC[C@H](Oc2ccc(F)c(O)c2)C1 [Example 52, 5-[(3S)-3-(4-Fluoro-3-Hydroxy-phenoxy)-pyrrolidin-1-yl]-5-methyl-2,2-diphenyl-hexanoic acid amide] | 2.16
